Tests used:
Format in all cases: cell-based
[1] = system: bacteria expressing Classes A, B or D; assay: Growth test with CLOX (FIG. 31); conditions: CLOX at a concentration of about 100 μg/ml
Protocol: (§1) Non-limiting embodiments of detection tests for enteric and non-fermenting bacteria, with various concentration ranges of one or more antibiotics, and various concentration ranges for one or more inhibitors are shown in FIG. 1-FIG. 24 and FIG. 31. These figures illustrate the concentration of the antibiotic being tested (in μg/ml) along the x-axis (not every concentration is tested in every figure), and the amount of growth of bacteria in the sample in the y-axis. The boxes illustrate the median, interquartile range, non-outlier minimum and maximum; with asterisks representing single outliers. Each figure has a panel for Class A, Class B, and Class D producing bacteria, as well as a panel for non-carbapenemase producing bacteria (NEG). In some embodiments, the detection tests described herein are not performed by imaging a change in cell morphology.
(§2) In some embodiments, the detection tests can comprise a plurality of wells comprising enteric bacteria, CLOX at 0.1 mg/ml, and MEM over a range of concentrations of about 0.0156 μg/ml to about 64 μg/ml (FIG. 31).

[2] = system: Bacteria expressing Class C β-lactamases; assay: Growth test with CLOX (FIG. 31)
Protocol: as §1, §2

[3] = system: Bacteria expressing Ambler Class B carbapenemases; assay: Growth tests with chelating agents added to antibiotic
Protocol: as §1

Cc1onc(-c2ccccc2Cl)c1C(=O)N[C@@H]1C(=O)N2[C@@H]1SC(C)(C)[C@@H]2C(=O)O [CLOX, cloxacillin]
sensitivity to CLOX [1]: typically not
concentration at which bacteria are sensitive [2]: about 100 μg/ml

O=C(O)c1cccc(C(=O)O)n1 [DPA, dipicolinic acid]
concentration at which bacteria are sensitive ([3]; FIG. 9, FIG. 10, FIG. 21 and FIG. 22 (with MEM/CLOX or DOR/CLOX)): 180 µg/mL

O=C(O)CN(CCN(CC(=O)O)CC(=O)O)CC(=O)O [EDTA, ethylenediaminetetraacetic acid]
concentration at which bacteria are sensitive ([3]; FIG. 3, FIG. 4, FIG. 15 and FIG. 16 (with TEM/CLOX or DOR/CLOX)): 250 µg/mL
concentration at which bacteria are sensitive ([3]; FIG. 5 and FIG. 6 (with TEM/CLOX)): 280 µg/mL

From patent publication US12234499B2, “Compositions, methods, systems and/or kits for detecting antimicrobial resistance in bacteria” (priority 2016, dated 2025)
